In patent US11148990B2 (JOST CHEMICAL CO., priority 2019, dated 2021):

Experiments:
Assay type in all cases: physicochemical
[1] = Compressibility: tablets on instrumented Carver press, no excipients, three-point bend stress; conditions: current experimental conditions
Protocol: Compressibility of a second sample of magnesium citrate glycinate was evaluated using an instrumented Carver press. Approximately 1.6 g, 5 mm thick tablets were compressed using the 0.4″×0.9″ rectangular tooling. No excipients were used. The sides of the tooling were slightly dusted with magnesium stearate in order to facilitate tablet ejection and eliminate sticking. The tablets were subjected to a three-point bend stress using a TA.XT2-Plus texture analyzer (from Stable Micro Systems of Surrey, England). Flexural strength and young modulus of the compact were measured. In addition, compact density was calculated from the weight and size measurements of the tablets.
An attempt was made to compare compressibility of magnesium citrate glycinate with those of individual salts, magnesium citrate tribasic and magnesium bis-glycinate.

[2] = Apparent density measurement
Protocol: In addition, particle size distribution and apparent density of di-magnesium citrate glycinate co-salt were measured.

[3] = Aqueous stability of 10% w/w solution standing for 24 hours, visual inspection; conditions: 10% w/w solution in water

| Compound | Compressibility, tablet formation [1] | Apparent density [2] | Aqueous stability, change of clear and colorless solution [3] |
| --- | --- | --- | --- |
| O=C([O-])CC(O)(CC(=O)[O-])C(=O)[O-].O=C([O-])CC(O)(CC(=O)[O-])C(=O)[O-].[Mg+2].[Mg+2].[Mg+2] [magnesium citrate tribasic] | no cohesive tablets were obtained |  |  |
| NCC(=O)[O-].O=C([O-])CC(O)(CC(=O)[O-])C(=O)[O-].[Mg+2].[Mg+2] [magnesium citrate glycinate co-salt] |  | 1740 kg/m^3 | no change |
| NCC(=O)[O-].NCC(=O)[O-].[Mg+2] [magnesium bis-glycinate] | no cohesive tablets were obtained |  |  |
